From PMC8379256, “A xanthene derivative, DS20060511, attenuates glucose intolerance by inducing skeletal muscle-specific GLUT4 translocation in mice” (Communications Biology, 2021)
Several values for one entry are separate records, joined by “and”; a condition that tells them apart may be missing. Equal values may be shown once.

System: C57BL/6 mice
Experiment: Indirect calorimetry and exercise endurance under stepwise treadmill running
Format: in vivo, mouse
Details: 30 mg/kg; for Respiratory quotient / CO2 Production (VCO2) / O2 Consumption (VO2): DS20060511 30 mg/kg, individual mice 1-7, Fig. 5a
Method: The mice were acclimatized to the treadmill by allowing them to run at 10 m min^−1 for 10 min on the day before the test. On the day of the test, the mice received oral administration of 30 mg kg^−1 of DS20060511 or vehicle 15 min before they were made to run. The treadmill was started at a velocity of 10 m min^−1, with the speed increased stepwise by 2 m min^−1 every 3 min, to assess the exercise endurance capacity as described previously. Measurements of the oxygen consumption (VO2) and exhaled carbon dioxide (VCO2) under treadmill running were conducted with the ARCO-2000 magnetic-type mass spectrometric calorimeter (ARCO System, Kashiwa, Japan) connected to the treadmill chamber (MB-2000, ARCO System). The RER was calculated as the VCO2/VO2 ratio and the substrate utilization rates were calculated using Frayn’s formula[51]: rate of glucose oxidation = 4.585VCO2 − 3.226VO2; rate of fat oxidation = 1.695VO2 − 1.701VCO2. The exercise endurance capacity under treadmill running was determined by measuring the time from the start to the time until the mice ceased to run because of exhaustion, which was defined as remaining on the shocker plate for more than 10 sec. Immediately after the exercise, the blood glucose and lactate levels were measured using Glutest Every and Lactate Pro2 (ARKRAY, Kyoto, Japan), respectively, in blood samples collected from the tail vein.

## COc1ccc2c(C)c(C(=O)O)ccc2c1C1C2=C(CC(C)(C)CC2=O)OC2=C1C(=O)CC(C)(C)C2 [DS20060511]
2 min
  Respiratory quotient: 0.76 (2×) and 0.78 and 0.75 and 0.82 (2×) and 0.79
3 min
  CO2 Production (VCO2): 92.0 mL/min/kg and 71.1 mL/min/kg and 77.7 mL/min/kg and 83.7 mL/min/kg and 70.1 mL/min/kg and 74.8 mL/min/kg and 73.0 mL/min/kg
  O2 Consumption (VO2): 103.2 mL/min/kg and 101.7 mL/min/kg and 88.1 mL/min/kg and 95.2 mL/min/kg and 94.7 mL/min/kg and 120.2 mL/min/kg and 89.5 mL/min/kg
  Respiratory quotient: 0.77 (2×) and 0.79 (2×) and 0.75 and 0.82 and 0.80
4 min
  CO2 Production (VCO2): 90.3 mL/min/kg and 73.1 mL/min/kg and 78.3 mL/min/kg and 89.7 mL/min/kg and 70.1 mL/min/kg and 72.9 mL/min/kg and 72.1 mL/min/kg
  O2 Consumption (VO2): 103.7 ml/min/kg and 110.0 ml/min/kg and 106.3 ml/min/kg and 93.1 ml/min/kg (2×) and 117.2 ml/min/kg and 90.4 ml/min/kg
  Respiratory quotient: 0.77 (2×) and 0.81 (2×) and 0.75 and 0.66 and 0.78
5 min
  CO2 Production (VCO2): 91.5 mL/min/kg and 72.5 mL/min/kg and 78.6 mL/min/kg and 85.8 mL/min/kg and 66.5 mL/min/kg and 73.8 mL/min/kg and 71.7 mL/min/kg
  O2 Consumption (VO2): 103.7 mL/min/kg and 103.8 mL/min/kg and 83.5 mL/min/kg and 95.6 mL/min/kg and 90.5 mL/min/kg and 116.5 mL/min/kg and 90.3 mL/min/kg
  Respiratory quotient: 0.78 and 0.80 (2×) and 0.76 and 0.83 and 0.77 and 0.79
6 min
  CO2 Production (VCO2): 87.9 mL/min/kg and 70.6 mL/min/kg and 76.9 mL/min/kg and 85.9 mL/min/kg and 73.0 mL/min/kg and 71.8 mL/min/kg and 71.2 mL/min/kg
  O2 Consumption (VO2): 100.7 mL/min/kg and 102.8 mL/min/kg and 90.9 mL/min/kg and 93.7 mL/min/kg and 92.0 mL/min/kg and 112.2 mL/min/kg and 87.4 mL/min/kg
  Respiratory quotient: 0.78 and 0.81 and 0.76 and 0.84 and 0.80 and 0.77 (2×)
7 min
  CO2 Production (VCO2): 93.5 mL/min/kg and 69.9 mL/min/kg and 76.8 mL/min/kg and 86.5 mL/min/kg and 72.9 mL/min/kg and 71.9 mL/min/kg and 70.2 mL/min/kg
  O2 Consumption (VO2): 101.1 mL/min/kg and 105.0 mL/min/kg and 90.7 mL/min/kg and 93.7 mL/min/kg and 90.0 mL/min/kg and 120.2 mL/min/kg and 86.5 mL/min/kg
  Respiratory quotient: 0.78 (2×) and 0.81 and 0.76 and 0.82 and 0.80 and 0.77
8 min
  CO2 Production (VCO2): 88.9 mL/min/kg and 75.0 mL/min/kg and 78.4 mL/min/kg and 85.8 mL/min/kg and 72.7 mL/min/kg and 72.1 mL/min/kg and 69.7 mL/min/kg
  O2 Consumption (VO2): 103.5 mL/min/kg and 107.7 mL/min/kg and 91.4 mL/min/kg and 93.1 mL/min/kg and 101.3 mL/min/kg and 113.1 mL/min/kg and 92.7 mL/min/kg
  Respiratory quotient: 0.79 and 0.81 and 0.76 and 0.80 (2×) and 0.77 and 0.69
9 min
  CO2 Production (VCO2): 95.5 mL/min/kg and 73.8 mL/min/kg and 77.9 mL/min/kg and 84.5 mL/min/kg and 74.4 mL/min/kg and 71.2 mL/min/kg and 78.8 mL/min/kg
  O2 Consumption (VO2): 100.3 mL/min/kg and 103.6 mL/min/kg and 93.8 mL/min/kg and 94.2 mL/min/kg and 95.0 mL/min/kg and 118.5 mL/min/kg and 89.8 mL/min/kg
  Respiratory quotient: 0.81 and 0.82 (2×) and 0.78 and 0.79 and 0.76 and 0.83
10 min
  CO2 Production (VCO2): 92.6 ml/min/kg and 70.7 ml/min/kg and 80.1 ml/min/kg and 84.2 ml/min/kg (2×) and 72.0 ml/min/kg and 74.9 ml/min/kg
  O2 Consumption (VO2): 104.6 mL/min/kg and 102.1 mL/min/kg and 90.2 mL/min/kg and 95.3 mL/min/kg and 98.2 mL/min/kg and 113.5 mL/min/kg and 87.0 mL/min/kg
  Respiratory quotient: 0.82 (2×) and 0.81 and 0.77 and 0.80 and 0.79 and 0.86
11 min
  CO2 Production (VCO2): 96.0 ml/min/kg and 73.8 ml/min/kg and 80.9 ml/min/kg and 84.3 ml/min/kg and 71.1 ml/min/kg (2×) and 86.5 ml/min/kg
  O2 Consumption (VO2): 106.8 mL/min/kg and 102.9 mL/min/kg and 84.9 mL/min/kg and 92.0 mL/min/kg and 101.1 mL/min/kg and 115.1 mL/min/kg and 89.8 mL/min/kg
  Respiratory quotient: 0.83 and 0.82 (2×) and 0.76 and 0.84 and 0.77 and 0.85
12 min
  CO2 Production (VCO2): 97.3 mL/min/kg and 74.3 mL/min/kg and 80.0 mL/min/kg and 93.2 mL/min/kg and 68.6 mL/min/kg and 70.0 mL/min/kg and 89.3 mL/min/kg
  O2 Consumption (VO2): 103.8 mL/min/kg and 112.5 mL/min/kg and 85.8 mL/min/kg and 91.1 mL/min/kg and 105.1 mL/min/kg and 120.4 mL/min/kg and 90.9 mL/min/kg
  Respiratory quotient: 0.81 and 0.82 and 0.77 (2×) and 0.83 and 0.80 and 0.85
13 min
  CO2 Production (VCO2): 101.9 mL/min/kg and 82.3 mL/min/kg and 78.0 mL/min/kg and 86.9 mL/min/kg and 68.9 mL/min/kg and 69.6 mL/min/kg and 93.3 mL/min/kg
  O2 Consumption (VO2): 102.8 mL/min/kg and 102.5 mL/min/kg and 86.7 mL/min/kg and 90.5 mL/min/kg and 109.1 mL/min/kg and 127.7 mL/min/kg and 94.9 mL/min/kg
  Respiratory quotient: 0.80 and 0.87 and 0.76 and 0.85 and 0.79 and 0.77 and 0.86
14 min
  CO2 Production (VCO2): 100.6 mL/min/kg and 80.5 mL/min/kg and 79.5 mL/min/kg and 84.1 mL/min/kg and 69.5 mL/min/kg and 69.8 mL/min/kg and 95.1 mL/min/kg
  O2 Consumption (VO2): 102.1 mL/min/kg and 101.4 mL/min/kg and 88.4 mL/min/kg and 91.3 mL/min/kg and 109.8 mL/min/kg and 125.1 mL/min/kg and 95.0 mL/min/kg
  Respiratory quotient: 0.80 and 0.85 and 0.78 and 0.83 and 0.79 and 0.76 and 0.87
15 min
  CO2 Production (VCO2): 92.4 mL/min/kg and 82.1 mL/min/kg and 81.9 mL/min/kg and 83.7 mL/min/kg and 69.2 mL/min/kg and 69.5 mL/min/kg and 105.4 mL/min/kg
  O2 Consumption (VO2): 105.0 mL/min/kg and 100.1 mL/min/kg and 87.5 mL/min/kg and 93.8 mL/min/kg and 120.2 mL/min/kg and 115.1 mL/min/kg and 96.2 mL/min/kg
  Respiratory quotient: 0.80 and 0.85 and 0.78 and 0.84 and 0.79 and 0.74 and 0.88
16 min
  CO2 Production (VCO2): 98.8 mL/min/kg and 82.5 mL/min/kg
  O2 Consumption (VO2): 103.6 mL/min/kg and 108.6 mL/min/kg
  Respiratory quotient: 0.79 and 0.85
Exercise tolerance test, individual mice
  Blood glucose: 124 mg/dL and 146 mg/dL and 95 mg/dL and 96 mg/dL and 149 mg/dL and 133 mg/dL and 119 mg/dL
